# Experiments:
# [1] = pH 2.7, LogP, HPLC on reversed phase columns, pH 2.7, 0.1% formic acid in water / acetonitrile gradient
# Procedure: Measurement of log P values was performed according EEC directive 79/831 Annex V.A8 by HPLC (High Performance Liquid Chromatography) on reversed phase columns with the following method:
# Measurement of LC-MS was done at pH 2.7 with 0.1% formic acid in water and with acetonitrile (contains 0.1% formic acid) as eluent with a linear gradient from 10% acetonitrile to 95% acetonitrile.
# Calibration was done with not branched alkan2-ones (with 3 to 16 carbon atoms) with known log P-values (measurement of log P values using retention times with linear interpolation between successive alkanones). lambda-maX-values were determined using UV-spectra from 200 nm to 400 nm and the peak values of the chromatographic signals.
# Phytophthora infestans = experiment: whole plant or invertebrate; type: in vivo; details: in Solanum lycopersicum, 120 h, read-out: % efficacy
# Plasmopara viticola = experiment: Example I: in vivo preventive test on Plasmopara viticola (grapevine); details: 144 h, 10 ppm of active ingredient, preventive spray on young plants, evaluated 6 days after inoculation, read-out: Eff. %
# Procedure: In Vivo Preventive Test on Plasmopara viticola (Grapevine)
# To produce a suitable preparation of active compound, 1 part by weight of active compound is mixed with the stated amounts of solvent and emulsifier, and the concentrate is diluted with water to the desired concentration.
# To test for preventive activity, young plants are sprayed with the preparation of active compound at the stated rate of application. After the spray coating has dried on, the plants are inoculated with an aqueous spore suspension of Plasmopara viticola and then remain for 1 day in an incubation cabinet at approximately 20° C. and a relative atmospheric humidity of 100%. The plant is subsequently placed for 4 days in a greenhouse at approximately 21° C. and a relative atmospheric humidity of approximately 90%. The plants are then misted and placed for 1 day in an incubation cabinet.
# The test is evaluated 6 days after the inoculation. 0% means an efficacy which corresponds to that of the untreated control, while an efficacy of 100% means that no disease is observed.
smiles,measurement,setting,value
"Cn1oc(=O)nc1/C(=N\OCc1cccc(NC(=O)OCCc2ccccc2)n1)c1ccccc1 [Example 15, 2-phenylethyl {6-[({[(Z)-(2-methyl-5-oxo-2,5-dihydro-1,2,4-oxadiazol-3-yl)(phenyl)methylene]amino}oxy)methyl]pyridin-2-yl}carbamate]",chromatographic logP,[1],3.57
same,pest or weed control at 500 ppm,Phytophthora infestans,99%
same,pest or weed control at 10 ppm,Plasmopara viticola,94%
"Cn1oc(=O)nc1/C(=N\OCc1cccc(NCCC2CCCCC2)n1)c1ccccc1 [Example 3, 3-[(Z)-[({6-[(2-cyclohexylethyl)amino]pyridin-2-yl}methoxy)imino](phenyl)methyl]-2-methyl-1,2,4-oxadiazol-5(2H)-one]",chromatographic logP,[1],2.43
same,pest or weed control at 10 ppm,Plasmopara viticola,93%
CCCCCOC(=O)Nc1cccc(CON=C(c2ccccc2)c2nc(=O)on2C)n1 [Example 13],chromatographic logP,[1],3.81
same,pest or weed control at 500 ppm,Phytophthora infestans,100%
same,pest or weed control at 10 ppm,Plasmopara viticola,95%
CCCCCC(=O)Nc1cccc(CON=C(c2cccc(C)c2)c2nc(=O)on2C)n1 [Example 59],chromatographic logP,[1],3.58
same,pest or weed control at 500 ppm,Phytophthora infestans,90%
CCCCC(=O)Nc1cccc(CON=C(c2cccc(C)c2)c2nc(=O)on2C)n1 [Example 60],chromatographic logP,[1],3.19
same,pest or weed control at 500 ppm,Phytophthora infestans,89%
Cc1cccc(C(=NOCc2cccc(NC(=O)C(C)Oc3ccccc3)n2)c2nc(=O)on2C)c1 (centres unmarked) [Example 103],chromatographic logP,[1],3.64
same,pest or weed control at 500 ppm,Phytophthora infestans,80%
COc1cccc(C(=NOCc2cccc(NC(=O)OC3CCCCC3)n2)c2nc(=O)on2C)c1 [Example 28],chromatographic logP,[1],3.85
same,pest or weed control at 500 ppm,Phytophthora infestans,78%
Cn1oc(=O)nc1C(=NOCc1cccc(NC(=O)OC2CCCCC2)n1)c1cccc(F)c1 [Example 33],chromatographic logP,[1],3.92
same,pest or weed control at 500 ppm,Phytophthora infestans,100%
C#CCC(C)OC(=O)Nc1cccc(CON=C(c2cccc(F)c2)c2nc(=O)on2C)n1 (centres unmarked) [Example 99],chromatographic logP,[1],3.09
same,pest or weed control at 500 ppm,Phytophthora infestans,100%
Cc1ccc(C(=O)Nc2cccc(CON=C(c3cccc(C)c3)c3nc(=O)on3C)n2)cc1 [Example 80],chromatographic logP,[1],3.53
same,pest or weed control at 500 ppm,Phytophthora infestans,80%
CCCCC(=O)Nc1cccc(CON=C(c2cccc(F)c2)c2nc(=O)o[nH]2)n1 [Example 72],chromatographic logP,[1],2.98
same,pest or weed control at 500 ppm,Phytophthora infestans,85%
Cc1cccc(C(=NOCc2cccc(NC(=O)c3ccccc3)n2)c2nc(=O)on2C)c1 [Example 82],chromatographic logP,[1],3.21
same,pest or weed control at 500 ppm,Phytophthora infestans,75%
CCCCCOC(=O)Nc1cccc(CON=C(c2cccc(F)c2)c2nc(=O)o[nH]2)n1 [Example 69],chromatographic logP,[1],3.89
same,pest or weed control at 500 ppm,Phytophthora infestans,100%
CC#CCOC(=O)Nc1cccc(CON=C(c2cccc(F)c2)c2nc(=O)o[nH]2)n1 [Example 65],chromatographic logP,[1],2.94
same,pest or weed control at 500 ppm,Phytophthora infestans,100%
CCCCCCC(=O)Nc1cccc(CON=C(c2cccc(C)c2)c2nc(=O)on2C)n1 [Example 78],chromatographic logP,[1],3.96
same,pest or weed control at 500 ppm,Phytophthora infestans,70%
C#CCC(C)OC(=O)Nc1cccc(CON=C(c2cccc(OC)c2)c2nc(=O)on2C)n1 (centres unmarked) [Example 94],chromatographic logP,[1],3.02
same,pest or weed control at 500 ppm,Phytophthora infestans,85%
CCCCOC(=O)Nc1cccc(CON=C(c2cccc(F)c2)c2nc(=O)o[nH]2)n1 [Example 71],chromatographic logP,[1],3.48
same,pest or weed control at 500 ppm,Phytophthora infestans,95%
O=C(Cc1ccccc1)Nc1cccc(CON=C(c2cccc(F)c2)c2nc(=O)o[nH]2)n1 [Example 76],chromatographic logP,[1],3.04
same,pest or weed control at 500 ppm,Phytophthora infestans,90%
Cn1oc(=O)nc1C(=NOCc1cccc(NC(=O)OC2CCCCC2)n1)c1ccccc1 [Example 26],chromatographic logP,[1],3.81
same,pest or weed control at 500 ppm,Phytophthora infestans,99%
COc1ccc(CC(=O)Nc2cccc(CON=C(c3cccc(OC)c3)c3nc(=O)o[nH]3)n2)cc1 [Example 48],chromatographic logP,[1],2.98
same,pest or weed control at 500 ppm,Phytophthora infestans,100%
CCCCCCC(=O)Nc1cccc(CON=C(c2cccc(OC)c2)c2nc(=O)o[nH]2)n1 [Example 50],chromatographic logP,[1],3.71
same,pest or weed control at 500 ppm,Phytophthora infestans,100%

# — US9556158B2, “Fungicidal 3-[(pyridin-2-ylmethoxyimino)(phenyl)methyl]-2-substituted-1,2,4-oxadiazol-5(2H)-one derivatives” (BAYER INTELLECTUAL PROPERTY GMBH, priority 2011, dated 2017)
